Data taken from paper PMC7861629 (Bosnian Journal of Basic Medical Sciences, 2021).

Key:
[1] = rat
Experimental: The weight of the pieces applied was 25.2 ± 1.6 mg (mean ± standard deviation [SD]) and the amount of vancomycin in the collagen sponge pieces was 11.2 ± 0.7 mg (mean ± SD). For placebo group (n = 6), a 10 mm × 10 mm piece of placebo-containing collagen sponge was applied. The pocket on the sham surgery side was sutured with no sponge so as to provide for a control.
We administered 7.5 mg of vancomycin intraperitoneally to rats accompanied by a similar induction of s.c. infection; we measured the plasma levels in the same way as we did for the active arm.
Blood samples (volume, 0.5 mL) for determination of vancomycin and haptoglobin levels were drawn from the jugular vein into a 0.5 mL heparinized syringe under isoflurane anesthesia. Samples were drawn from three animals in vancomycin group 0.5, 1, 2, and 4 h following inoculation on the 1st day to determine vancomycin and haptoglobin levels. Samples were also taken from all animals in placebo group on the 1st day 2 h following inoculation to determine haptoglobin level only. Samples from four animals in vancomycin group and two animals in placebo group were drawn on the 1st, 2nd, and 3rd day following inoculation. The final sample was drawn intracardially upon termination on day 4 following inoculation. The samples were centrifuged (12,000 rpm, 2 min) and the samples from days 1, 2, and 3 following inoculation were frozen at -20°C until analyzed. Vancomycin concentration in the blood as well as haptoglobin level (rat acute phase marker) were determined using a nephelometric method (Beckman Coulter, Indianapolis, IN, USA).

[2] = children, 1000 mg vancomycin powder during spinal deformity surgery; cited from earlier work
Experimental: Following the application of 1000 mg of vancomycin powder during sur ...

Which AUC ([1]; 7.5 mg vancomycin i.p., calculated from obtained levels) does the source give for `CN[C@H](CC(C)C)C(=O)N[C@H]1C(=O)N[C@@H](CC(N)=O)C(=O)N[C@H]2C(=O)N[C@H]3C(=O)N[C@H](C(=O)N[C@H](C(=O)O)c4cc(O)cc(O)c4-c4cc3ccc4O)[C@H](O)c3ccc(c(Cl)c3)Oc3cc2cc(c3O[C@@H]2O[C@H](CO)[C@@H](O)[C@H](O)[C@H]2O[C@H]2C[C@](C)(N)[C@H](O)[C@H](C)O2)Oc2ccc(cc2Cl)[C@H]1O` [vancomycin] here?
The AUC was 87.71 µg·h/mL.

And the “vancomycin level after 24 h” value ([1]; 7.5 mg vancomycin i.p., detected in one animal only, nephelometric method)?
Its value is 0.2 mg/L.

What about the “expected AUC after 11.2 mg” value ([1]; i.p., extrapolated from 7.5 mg dose to the sponge dose) of the same compound?
The value was 130.9 µg·h/mL.

And the “vancomycin level in fluid drained by subfascial drain, day 0” value [2]?
The value was 403 mg/L.

And the “vancomycin level in fluid drained by subfascial drain, day 1” value [2]?
The value was 251 mg/L.

What about the “vancomycin level in fluid drained by subfascial drain, day 2” value [2] of the same compound?
Its value is 115 mg/L.

What about the “vancomycin level in plasma, day 0” value [2] of the same compound?
Its value is 2.5 mg/L.

What about the “vancomycin level in plasma, day 1” value [2] of the same compound?
Its value is 1.9 mg/L.

And the “vancomycin level in plasma, day 2” value [2]?
Its value is 1.1 mg/L.
